Test results as given in patent US20090253671A1, “TRICYCLIC DERIVATIVES OF AZETIDINE AND PYRROLE WITH ANTIBACTERIAL ACTIVITY” (ASTRAZENECA AB, priority 2005, published 2009).
Converted amounts (≈) assume the structure as drawn.

Key:
Test in all cases: Bacterial susceptibility testing in liquid media (MIC)
Format in all cases: cell-based
Streptococcus pneumoniae = settings: lowest concentration reducing growth by 80% or more, 37 degrees C., 24 hrs; for MIC SPN548: strain SPN548
Description: (§1) Compounds were tested for antimicrobial activity by susceptibility testing in liquid media. Compounds were dissolved in dimethylsulfoxide and tested in 10 doubling dilutions in the susceptibility assays. The organisms used in the assay were grown overnight on suitable agar media and then suspended in a liquid medium appropriate for the growth of the organism. The suspension was a 0.5 McFarland and a further 1 in 10 dilution was made into the same liquid medium to prepare the final organism suspension in 100 μL. Plates were incubated under appropriate conditions at 37 degrees C. for 24 hrs prior to reading. The Minimum Inhibitory Concentration was determined as the lowest drug concentration able to reduce growth by 80% or more.

HIN446 = settings: strain HIN446; lowest concentration reducing growth by 80% or more, 37 degrees C., 24 hrs
Description: as §1

SAU516 = settings: strain SAU516; lowest concentration reducing growth by 80% or more, 37 degrees C., 24 hrs
Description: as §1

Row | SMILES | MIC (Streptococcus pneumoniae; against Streptococcus pneumoniae) | MIC SPN548 (Streptococcus pneumoniae) | MIC HIN446 (HIN446) | MIC SAU516 (SAU516)
1 | CONC(=O)c1cc(N2CC(NC(=O)c3[nH]c(C)c(Cl)c3Cl)C2)nc(Cl)n1 [Example 9, 2-Chloro-6-(3-{[(3,4-dichloro-5-methyl-1H-pyrrol-2-yl)carbonyl]amino}azetidin-1-yl)-N-methoxypyrimidine-4-carboxamide] | 2 µg/mL (≈ 4.61 µM) | 2 µg/mL (≈ 4.61 µM) | 4 µg/mL (≈ 9.22 µM) | 2 µg/mL (≈ 4.61 µM)
2 | Cc1[nH]c(C(=O)NC2CN(c3ncc(C(=O)O)s3)C2)c(Cl)c1Cl [Example 4, 2-(3-{[(3,4-Dichloro-5-methyl-1H-pyrrol-2-yl)carbonyl]amino}azetidin-1-yl)-1,3-thiazole-5-carboxylic acid] |  | 4 µg/mL (≈ 10.7 µM) | 2 µg/mL (≈ 5.33 µM) | 32 µg/mL (≈ 85.3 µM)
3 | Cc1nc(N2CC(NC(=O)c3[nH]c(C)c(Cl)c3Cl)C2)sc1C(=O)O [Example 5, 2-(3-{[(3,4-Dichloro-5-methyl-1H-pyrrol-2-yl)carbonyl]amino}azetidin-1-yl)-4-methyl-1,3-thiazole-5-carboxylic acid] |  | 0.5 µg/mL (≈ 1.28 µM) | 0.5 µg/mL (≈ 1.28 µM) | 4 µg/mL (≈ 10.3 µM)
4 | CONC(=O)c1cnc(N2CC(NC(=O)c3[nH]c(C)c(Cl)c3Cl)C2)s1 [Example 8, 2-(3-{[(3,4-Dichloro-5-methyl-1H-pyrrol-2-yl)carbonyl]amino}azetidin-1-yl)-N-methoxy-1,3-thiazole-5-carboxamide] |  | 1 µg/mL (≈ 2.47 µM) | 8 µg/mL (≈ 19.8 µM) | 8 µg/mL (≈ 19.8 µM)
